Measured values from patent US20150203807A1, “INACTIVATION OF A […] USING A FATTY ACID” (NOVOZYMES A/S, priority 2012, published 2015).

System: Trichoderma reesei microbial host cells
Assay: Inactivation of the microbial host cells in fermentation broth (growth on agar plates)
Assay type: cell-based
Conditions: hexanoic acid at 0.09%, 0.28%, 0.46%, 0.65% (w/w) in fermentation broth; pH 4.5; 24 hrs constant stirring at room temperature; samples incubated for 4 days at 30 degrees Celsius
Procedure: The fatty acid is added to the fermentation broth at various concentrations (0.09% (w/w); 0.28% (w/w); 0.46% (w/w); 0.65% (w/w)).
pH is adjusted to 4.5 using an aqueous solution of acetic acid (CAS 64-19-7) and/or aqueous sodium hydroxide (CAS 1310-73-2).
The fermentation broth with the various concentrations of the fatty acid is left at pH 4.5 for 24 hrs with constant stirring at room temperature.
The fermentation broth is tested after 24 hrs and inactivation of the microbial host cells is successful if there is no growth on agar plates—samples are incubated for 4 days at 30 degrees Celsius.
Hexanoic acid (100% sol., CAS 142-62-1) was added to the fermentation broth at various concentrations (0.09% (w/w); 0.28% (w/w); 0.46% (w/w); 0.65% (w/w)).
pH was adjusted to 4.5 using an aqueous solution of acetic acid (CAS 64-19-7) and/or aqueous sodium hydroxide (CAS 1310-73-2).
The fermentation broth with the various concentrations of hexanoic acid was left at pH 4.5 for 24 hrs with constant stirring at room temperature.
After 24 hrs the Trichoderma reesei microbial host cells were inactivated (no growth on agar plates—samples were incubated for 4 days at 30 degrees Celsius).

## CCCCCC(=O)O [Hexanoic acid]
  inactivation of Trichoderma reesei microbial host cells (no growth on agar plates): inactivated
